{"source": "patent US4503065A", "about": "“Antiinflammatory 4,5-diaryl 1-2-halo imidazoles” (E. I. Du Pont de Nemours and Company, priority 1982, dated 1985)", "test_system": "adjuvant-induced arthritis in rats", "test": "Established adjuvant-induced arthritis in rats (paw volume of uninjected left hind paw)", "format": "in vivo, Charles River Lewis male rats", "conditions": "for ED50: read-out: Adjuvant Arthritis ED50 (effective dose at which a 50% decrease from control paw volume is observed); for Percent decrease from control paw volume: 7 days", "key": {"[1]": {"conditions": "rat, oral gavage, daily for 7 days, paw volume one day after last dose, ED50 by visual-fit regression"}, "[2]": {"conditions": "at 50 mg/kg daily dose, rat, oral gavage"}, "[3]": {"conditions": "at 27 mg/kg daily dose, rat, oral gavage"}}, "note": "Like-named read-outs stand apart in the source and are kept apart here."}
{"smiles": "CC(C)Cc1ccc(C(C)C(=O)O)cc1", "note": "(centres unmarked) [Ibuprofen, reference compound]", "values": [{"measurement": "ED50", "setting": "[1]", "result": 100, "unit": "mg/kg"}]}
{"smiles": "CCOC(C)n1c(Cl)nc(-c2ccc(OC)cc2)c1-c1ccc(OC)cc1", "note": "(centres unmarked) [Example 7, 2-Chloro-1-(1-ethoxyethyl)-4,5-bis(4-methoxyphenyl)-1H-imidazole]", "values": [{"measurement": "Percent decrease from control paw volume", "setting": "[2]", "result": 37, "unit": "%"}]}
{"smiles": "Br.COc1ccc(-c2nc(Br)[nH]c2-c2ccc(OC)cc2)cc1", "note": "[Example 2, 2-Bromo-4,5-bis(4-methoxyphenyl)-1H-imidazole, Hydrobromide]", "values": [{"measurement": "Percent decrease from control paw volume", "setting": "[3]", "result": 46, "unit": "%"}]}
{"smiles": "CC(=O)Oc1ccccc1C(=O)O", "note": "[Aspirin, reference compound]", "values": [{"measurement": "ED50", "setting": "Rattus norvegicus, po", "result": 305, "unit": "mg/kg"}]}
{"smiles": "Br.Fc1ccc(-c2nc(Br)[nH]c2-c2ccc(F)cc2)cc1", "note": "[Example 1, 2-Bromo-4,5-bis(4-fluorophenyl)-1H-imidazole, Hydrobromide]", "values": [{"measurement": "Percent decrease from control paw volume", "setting": "[2]", "result": 33, "unit": "%"}]}
{"smiles": "COc1ccc(-c2nc(Cl)n(C)c2-c2ccc(OC)cc2)cc1", "note": "[Example 6, 2-Chloro-4,5-bis(4-methoxyphenyl)-1-methyl-1H-imidazole]", "values": [{"measurement": "Percent decrease from control paw volume", "setting": "[3]", "result": 35, "unit": "%"}]}
{"smiles": "COc1ccc(-c2nc(Cl)[nH]c2-c2ccc(OC)cc2)cc1.Cl", "note": "[Example 5, 2-Chloro-4,5-bis(4-methoxyphenyl)-1H-imidazole, Hydrochloride]", "values": [{"measurement": "Percent decrease from control paw volume", "setting": "[3]", "result": 17, "unit": "%"}]}
{"smiles": "CCCCC1C(=O)N(c2ccccc2)N(c2ccccc2)C1=O", "note": "[Phenylbutazone, reference compound]", "values": [{"measurement": "ED50", "setting": "[1]", "result": 10, "unit": "mg/kg"}]}
{"smiles": "Br.CSc1ccc(-c2nc(Br)[nH]c2-c2ccc(SC)cc2)cc1", "note": "[Example 4, 2-Bromo-4,5-bis(4-methylthiophenyl)-1H-imidazole, Hydrobromide]", "values": [{"measurement": "Percent decrease from control paw volume", "setting": "[3]", "result": 26, "unit": "%"}]}
{"smiles": "COc1ccc2c(c1)c(CC(=O)O)c(C)n2C(=O)c1ccc(Cl)cc1", "note": "[Indomethacin, reference compound]", "values": [{"measurement": "ED50", "setting": "Rattus norvegicus, po", "result": 0.3, "unit": "mg/kg"}]}
{"smiles": "Br.Clc1ccc(-c2nc(Br)[nH]c2-c2ccc(Cl)cc2)cc1", "note": "[Example 3, 2-Bromo-4,5-bis(4-chlorophenyl)-1H-imidazole, Hydrobromide]", "values": [{"measurement": "ED50", "setting": "[1]", "result": 5.2, "unit": "mg/kg"}]}
